This data set relates to rodent lifetime carcinogenesis bioassay, tumor incidence TD50. As to the kind of experiment: chronic cancer bioassays in animals – CPDB, compiled studies (AID 1745844).

Active and inactive are the calls of the source. How the calls were made is not given here.

A word on the TD50: it is the dose at which the toxic effect under study appears in half of the subjects.

`C[C@@H]1CCC[C@H](C)N1CCCC(O)(c1ccccc1)c1ccccn1` (stereo not given in full): the TD50 by setting is: (mouse, strain B6C3F1, females, in feed, site: all sites, lesion: lymphoma, dosed 104 weeks, study length 104 weeks) 94.6 mg/kg/day (inactive); (mouse, strain B6C3F1, females, in feed, site: liver, lesion: hepatocellular adenoma, dosed 104 weeks, study length 104 weeks) 1560 mg/kg/day (inactive); (mouse, strain B6C3F1, females, in feed, site: liver, lesion: hepatocellular carcinoma, dosed 104 weeks, study length 104 weeks) 978 mg/kg/day (inactive); (mouse, strain B6C3F1, females, in feed, site: lung, lesion: adenoma, dosed 104 weeks, study length 104 weeks) 1980 mg/kg/day (inactive); (mouse, strain B6C3F1, males, in feed, site: lung, lesion: adenoma, dosed 104 weeks, study length 104 weeks) 947 mg/kg/day (inactive); (mouse, strain B6C3F1, males, in feed, site: lung, lesion: carcinoma, dosed 104 weeks, study length 104 weeks) 4040 mg/kg/day (inactive). In addition, the TD50 is, setting by setting: (rat, strain Wistar, females, in feed, site: any site (literature study), lesion: several types, types named in the paper, dosed 104 weeks, study length 104 weeks) 440 mg/kg/day (inactive); (rat, strain Wistar, females, in feed, site: pituitary gland, lesion: adenoma, dosed 104 weeks, study length 104 weeks) 15.9 mg/kg/day (inactive); (rat, strain Wistar, males, in feed, site: adrenal gland, lesion: cortical adenoma, dosed 104 weeks, study length 104 weeks) 104 mg/kg/day (inactive). The carcinogen call (mouse, strain B6C3F1, females, in feed, site: any site (literature study), lesion: several types, types named in the paper, dosed 104 weeks, study length 104 weeks) is “negative (inactive)”; the carcinogen call (mouse, strain B6C3F1, females, in feed, site: lung, lesion: carcinoma, dosed 104 weeks, study length 104 weeks) was “negative (inactive)”; the carcinogen call (mouse, strain B6C3F1, males, in feed, site: any site (literature study), lesion: several types, types named in the paper, dosed 104 weeks, study length 104 weeks) was “negative (inactive)”; the carcinogen call (mouse, strain B6C3F1, males, in feed, site: liver, lesion: hepatocellular adenoma, dosed 104 weeks, study length 104 weeks) was “negative (inactive)”; the carcinogen call (mouse, strain B6C3F1, males, in feed, site: liver, lesion: hepatocellular carcinoma, dosed 104 weeks, study length 104 weeks) was “negative (inactive)”; the carcinogen call (rat, strain Wistar, females, in feed, site: liver, lesion: one or several types, types not named, dosed 104 weeks, study length 104 weeks) was “negative (inactive)”. In addition, the carcinogen call by setting is: (rat, strain Wistar, males, in feed, site: any site (literature study), lesion: several types, types named in the paper, dosed 104 weeks, study length 104 weeks) “negative (inactive)”; (rat, strain Wistar, males, in feed, site: liver, lesion: one or several types, types not named, dosed 104 weeks, study length 104 weeks) “negative (inactive)”.
Turning to `CC1(C)C(=O)Nc2ccc(C3=NNC(=O)CC3)cc21`, the TD50 (rat, strain Fischer 344, females, in feed, site: adrenal medulla, lesion: pheochromocytoma, benign, dosed 104 weeks, study length 104 weeks) was 5.05 mg/kg/day; the TD50 (rat, strain Fischer 344, females, in feed, site: adrenal medulla, lesion: several types, types named in the paper, dosed 104 weeks, study length 104 weeks) is 4.82 mg/kg/day; the TD50 (rat, strain Fischer 344, males, in feed, site: adrenal medulla, lesion: pheochromocytoma, benign, dosed 95 weeks, study length 95 weeks) is 1.38 mg/kg/day; the TD50 (rat, strain Fischer 344, males, in feed, site: adrenal medulla, lesion: pheochromocytoma, malignant, dosed 95 weeks, study length 95 weeks) amounted to 23.8 mg/kg/day; the TD50 (rat, strain Fischer 344, males, in feed, site: adrenal medulla, lesion: several types, types named in the paper, dosed 95 weeks, study length 95 weeks) is 1.27 mg/kg/day.
Turning to `ClC(Cl)=C(Cl)C(Cl)=C(Cl)Cl`, the TD50 by setting is: (rat, strain Sprague-Dawley Spartan, females, in feed, site: any site (literature study), lesion: several types, types named in the paper, dosed 104 weeks, study length 104 weeks) 9.84 mg/kg/day; (rat, strain Sprague-Dawley Spartan, females, in feed, site: kidney, lesion: several types, types named in the paper, dosed 104 weeks, study length 104 weeks) 94.4 mg/kg/day; (rat, strain Sprague-Dawley Spartan, males, in feed, site: kidney, lesion: several types, types named in the paper, dosed 95 weeks, study length 95 weeks) 50.5 mg/kg/day. Also, the carcinogen call is “negative (inactive)” (rat, strain Sprague-Dawley Spartan, females, in feed, site: liver, lesion: hepatocellular tumor, malignant, dosed 104 weeks, study length 104 weeks) and “negative (inactive)” (rat, strain Sprague-Dawley Spartan, males, in feed, site: liver, lesion: hepatocellular carcinoma, dosed 95 weeks, study length 95 weeks).
As to `OC[P+](CO)(CO)CO`, the TD50 is, setting by setting: (mouse, strain B6C3F1, females, by gavage, site: any site (literature study), lesion: several types, types named in the paper, dosed 103 weeks, study length 104 weeks) 908 mg/kg/day (inactive); (mouse, strain B6C3F1, females, by gavage, site: liver, lesion: hepatocellular adenoma + hepatocellular carcinoma + neoplastic nodule, dosed 103 weeks, study length 104 weeks) 200 mg/kg/day; (mouse, strain B6C3F1, females, by gavage, site: lung, lesion: alveolar/bronchiolar adenoma + alveolar/bronchiolar carcinoma, dosed 104 weeks, study length 105 weeks) 234 mg/kg/day; (mouse, strain B6C3F1, females, by gavage, site: multiple organs, lesion: malignant lymphoma, mixed type, dosed 104 weeks, study length 105 weeks) 15.7 mg/kg/day (inactive); (mouse, strain B6C3F1, males, by gavage, site: any site (literature study), lesion: several types, types named in the paper, dosed 104 weeks, study length 105 weeks) 47.3 mg/kg/day; (mouse, strain B6C3F1, males, by gavage, site: lung, lesion: alveolar/bronchiolar adenoma + alveolar/bronchiolar carcinoma, dosed 103 weeks, study length 104 weeks) 103 mg/kg/day. Moreover, the TD50 runs as follows: (mouse, strain B6C3F1, males, by gavage, site: lung, lesion: alveolar/bronchiolar adenoma + alveolar/bronchiolar carcinoma, dosed 104 weeks, study length 105 weeks) 78.5 mg/kg/day; (mouse, strain B6C3F1, males, by gavage, site: multiple organs, lesion: malignant lymphoma, histiocytic type + malignant lymphoma, mixed type + malignant lymphoma, lymphocytic type + malignant lymph, dosed 104 weeks, study length 105 weeks) 11.4 mg/kg/day (inactive); (rat, strain Fischer 344, females, by gavage, site: any site (literature study), lesion: several types, types named in the paper, dosed 103 weeks, study length 104 weeks) 4.78 mg/kg/day (inactive); (rat, strain Fischer 344, females, by gavage, site: any site (literature study), lesion: several types, types named in the paper, dosed 104 weeks, study length 106 weeks) 23.3 mg/kg/day (inactive); (rat, strain Fischer 344, males, by gavage, site: any site (literature study), lesion: several types, types named in the paper, dosed 103 weeks, study length 104 weeks) 14.7 mg/kg/day; (rat, strain Fischer 344, males, by gavage, site: any site (literature study), lesion: several types, types named in the paper, dosed 104 weeks, study length 106 weeks) 1.78 mg/kg/day. Moreover, the TD50 is, setting by setting: (rat, strain Fischer 344, males, by gavage, site: liver, lesion: hepatocellular adenoma + hepatocellular carcinoma + neoplastic nodule, dosed 103 weeks, study length 104 weeks) 24.5 mg/kg/day; (rat, strain Fischer 344, males, by gavage, site: liver, lesion: hepatocellular adenoma + hepatocellular carcinoma + neoplastic nodule, dosed 104 weeks, study length 106 weeks) 12.4 mg/kg/day; (rat, strain Fischer 344, males, by gavage, site: multiple organs, lesion: mononuclear-cell leukemia, dosed 104 weeks, study length 106 weeks) 2.42 mg/kg/day (inactive); (rat, strain Fischer 344, males, by gavage, site: pituitary gland, anterior, lesion: adenoma, NOS + carcinoma, NOS, dosed 104 weeks, study length 106 weeks) 3.3 mg/kg/day; (rat, strain Fischer 344, males, by gavage, site: pituitary gland, anterior, lesion: adenoma, NOS, dosed 104 weeks, study length 106 weeks) 3.56 mg/kg/day; (rat, strain Fischer 344, males, by gavage, site: subcutaneous tissue, lesion: fibroma, dosed 103 weeks, study length 104 weeks) 24.9 mg/kg/day (inactive). Besides, the carcinogen call (mouse, strain B6C3F1, males, by gavage, site: any site (literature study), lesion: several types, types named in the paper, dosed 103 weeks, study length 104 weeks) is “negative (inactive)”.
Regarding `C[C@@H]1C[C@H](C)CN(S(=O)(=O)c2ccc(Cl)c(C(=O)O)c2)C1`, the TD50 (rat, strain Fischer 344, males, in feed, site: liver, lesion: hepatocellular carcinoma, dosed 70 weeks, study length 71 weeks) is 4.85 mg/kg/day.
Regarding `CC=NN(C)C=O`, the TD50 by setting is: (mouse, strain Swiss albino, females, by gavage, site: clitoral gland, lesion: several types, types named in the paper, dosed 52 weeks, study length 109 weeks) 38.2 mg/kg/day; (mouse, strain Swiss albino, females, by gavage, site: clitoral gland, lesion: squamous-cell carcinoma, dosed 52 weeks, study length 109 weeks) 46.4 mg/kg/day; (mouse, strain Swiss albino, females, by gavage, site: forestomach, lesion: several types, types named in the paper, dosed 52 weeks, study length 109 weeks) 28 mg/kg/day; (mouse, strain Swiss albino, females, by gavage, site: forestomach, lesion: squamous-cell papilloma, dosed 52 weeks, study length 109 weeks) 32.4 mg/kg/day; (mouse, strain Swiss albino, females, by gavage, site: liver, lesion: hepatoma, dosed 52 weeks, study length 109 weeks) 28 mg/kg/day (inactive); (mouse, strain Swiss albino, females, by gavage, site: lung, lesion: adenocarcinoma, dosed 52 weeks, study length 109 weeks) 19.6 mg/kg/day. Also, the TD50 runs as follows: (mouse, strain Swiss albino, females, by gavage, site: lung, lesion: adenoma, dosed 52 weeks, study length 109 weeks) 7.37 mg/kg/day; (mouse, strain Swiss albino, females, by gavage, site: lung, lesion: several types, types named in the paper, dosed 52 weeks, study length 109 weeks) 5.66 mg/kg/day; (mouse, strain Swiss albino, males, by gavage, site: liver, lesion: hepatoma, dosed 52 weeks, study length 79 weeks) 11 mg/kg/day (inactive); (mouse, strain Swiss albino, males, by gavage, site: lung, lesion: adenoma, dosed 52 weeks, study length 79 weeks) 13.7 mg/kg/day; (mouse, strain Swiss albino, males, by gavage, site: lung, lesion: several types, types named in the paper, dosed 52 weeks, study length 79 weeks) 14.4 mg/kg/day; (mouse, strain Swiss albino, males, by gavage, site: preputial gland, lesion: fibrosarcoma, dosed 52 weeks, study length 79 weeks) 21.3 mg/kg/day. Also, the TD50 reads like this: (mouse, strain Swiss albino, males, by gavage, site: preputial gland, lesion: several types, types named in the paper, dosed 52 weeks, study length 79 weeks) 1.61 mg/kg/day; (mouse, strain Swiss albino, males, by gavage, site: preputial gland, lesion: squamous-cell carcinoma, dosed 52 weeks, study length 79 weeks) 2.17 mg/kg/day.
In the case of `CCCCNC(=O)NS(=O)(=O)c1ccc(C)cc1`, where the note is “mouse, strain B6C3F1, females, in feed, site: any site (literature study), lesion: several types, types named in the paper, dosed 78 weeks, study length 103 weeks”, the TD50 was 24200 mg/kg/day (inactive). For the same compound, the carcinogen call reads like this: (mouse, strain B6C3F1, males, in feed, site: any site (literature study), lesion: several types, types named in the paper, dosed 78 weeks, study length 102 weeks) “negative (inactive)”; (rat, strain Fischer 344, females, in feed, site: any site (literature study), lesion: several types, types named in the paper, dosed 78 weeks, study length 106 weeks) “negative (inactive)”; (rat, strain Fischer 344, males, in feed, site: any site (literature study), lesion: several types, types named in the paper, dosed 78 weeks, study length 106 weeks) “negative (inactive)”.

(Values after PubChem BioAssay AID1745844 (Carcinogenic Potency Database (CPDB), 2022).)
